Assay results reported in US8697655B2, “Method of selecting polypeptide sequence, and metal oxide or silicon-containing compound binding peptide and use thereof” (Riken, priority 2010, dated 2014).

Assay: Binding of P-EGFs to TiO2 plate, anti-EGF antibody chemiluminescence detection
Conditions: about 2.0 ng, 10 μl in TBS pH 7.5; washed 3 times with TBS-T; anti-human EGF antibody and HRP secondary
Procedure: Subsequently, in accordance with a scheme in the left in FIG. 4-2, various P-EGF solutions (about 2.0 ng, 10 μl in TBS, pH 7.5) were added on a TiO2 plate (a plate produced by vapor deposition of titanium on the surface of a glass plate with a diameter of 15 mm and a thickness of 0.6 mm (manufactured by Matsunami Glass Ind., Ltd.) (the vapor deposition step was requested to Osaka Vacuum Industrial Co., Ltd.) was used); and a washing operation (TBS-T buffer, pH 7.5) was repeated 3 times. And, after blocking with 0.1% BSA solution, an anti-human EGF antibody was added as a primary antibody. Furthermore, after the washing operation (TBS-T buffer, pH 7.5) was repeated 3 times, an anti-mouse IgG antibody HRP conjugate was added as a secondary antibody. At the end, using a luminescent phenomenon by a reaction between a chemiluminescence reagent and HRP as an index, the presence of protein immobilized on the TiO2 plate was detected. […]
First, in accordance with a scheme in the left in FIG. 7-1, various P-EGF solutions (about 2.0 ng, 10 μl in TBS, pH 7.5) were added on a TiO2 plate and a washing operation (TBS-T buffer, pH 7.5) was repeated 3 times. […] At the end, using a luminescent phenomenon by a reaction between a chemiluminescence reagent and HRP as an index, the presence of protein immobilized on the TiO2 plate was detected.

With “EGF: EGF to which a peptide was not fused” the “TiO2 plate binding (luminescent phenomenon of protein immobilized on the plate)” value was “did not exhibit TiO2 binding”.
